These are literature values, as cited in patent US20190216952A1, “Method for substantiating validating products for environmental safety” (priority 2018, published 2019).

Data set [1] deals with coral. To be noted: Danovaro et al 2008.
In data set [2] the test system is coral. To be noted: Downs et al.

Regarding `Cc1ccc(C=C2C(=O)C3(C)CCC2C3(C)C)cc1` (centres unmarked) [4-Methylbenzylidene Camphor], the coral bleaching/death entry with coral [1] was “caused coral bleaching/death”.

As for `CCCCOC(=O)c1ccc(O)cc1` [Butylparaben], in the data set with coral [1], the coral bleaching/death entry is “caused coral bleaching/death”.

Take `CCCCC(CC)COC(=O)C=Cc1ccc(OC)cc1` (centres unmarked) [Octinoxate]: the coral bleaching/death result in the data set on coral [1] was “caused coral bleaching/death”. Turning to `COc1ccc(C(=O)c2ccccc2)c(O)c1` [Oxybenzone], in the data set on coral [2], the toxicity in coral entry is reported as “toxicity”. The coral bleaching/death result with coral [1] is reported as “caused coral bleaching/death”.
